Test results from patent US10028961B2, “Therapeutically active compounds and their methods of use” (AGIOS PHARMACEUTICALS, INC., priority 2013, dated 2018).
Read-outs that look alike come from different tables or passages of the source.

Legend:
[1] = biological target: IDH1 wt/IDH1 R132H heterodimer (Homo sapiens (Human), UniProt O75874, R132H); test: In vitro assay for IDH1m R132H inhibitors, IDH1 wt/IDH1 R132H heterodimer, NADPH depletion (diaphorase/resazurin); format: biochemical
In short: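 Purified IDH1wt-his/IDH1R132H-flag heterodimer (sf9 co-expression) pre-incubated 1 hr at room temperature with compound and NADPH before α-KG addition. Remaining NADPH read by diaphorase/resazurin conversion to fluorescent resorufin, 5 min at 25° C. Compounds diluted 1:50 from DMSO; IC50 determined.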

[2] = biological target: IDH1 wt/IDH1 R132C heterodimer (Homo sapiens (Human), UniProt O75874, R132C); test: In vitro assay for IDH1m R132C inhibitors, IDH1 wt/IDH1 R132C heterodimer, NADPH depletion (diaphorase/resazurin); format: biochemical; settings: NADPH/NADP
Description: The following describes the experimental procedures that can be used to obtain data on columns 2 and 4 of Table 4 and column 2 of Table 5.
In the primary reaction, the reduction of α-KG acid to 2-HG is accompanied by a concomitant oxidation of NADPH to NADP. The amount of NADPH remaining at the end of the reaction time is measured in a secondary diaphorase/resazurin reaction in which the NADPH is consumed in a 1:1 molar ratio with the conversion of resazurin to the highly fluorescent resorufin.
The mixture of compound, enzyme, and cofactor is pre-incubated at room temperature for 1 hr prior to the addition of alpha-ketoglutarate. To perform the secondary reaction, 10 uL of 1× buffer containing 36 μg/ml diaphorase and […] resazurin is added to the primary reaction and incubated for a further 5 minutes at 25° C. Florescence is read on a Spectramax platereader at Ex 544 Em 590. Compounds or compound dilutions are prepared in 100% DMSO concentration and diluted 1:50 into the final reaction. […] IC50s are determined.
IDH1 or IDH2 wildtype (wt) and mutant heterodimers are expressed and purified by methods known in the art. For example, IDH1wt/R132m heterodimer is expressed and purified as follows. Co-expression of IDH1wt-his and IDH1R132C-flag is carried out in sf9 insect cells. Cells (25 g) are resuspended in 250 ml of 50 mM Tirs, 500 mM NaCl, pH7.4, at 4° C. with stirring. Cells are disrupted with 4 passes through an M-Y110 Micro fluidizer (Microfluidics) set to 500 psi, and then centrifuged at 22,000 rcf for 20 min at 4° C. The supernatant is harvested and loaded at 15 cm/h on a Histrap FF 5*1 ml column (GE) which is equilibrated with 50 mM Tirs, 500 mM NaCl, pH7.4. Host cell contaminants are removed by washing the column with equilibration buffer followed by equilibration buffer containing 20 mM imidazole and 60 mM imidazole to baseline. IDH1wt-his homodimer and IDH1wt-his/IDH1R132C-flag are eluted by equilibration buffer containing 250 mM imidazole. Fractions eluted by 250 mM imidazole are pooled together and loaded at 15 cm/h onto a column pre-packed with 10 ml ANTI-FLAG® M2 Affinity Gel (Sigma), the column is equilibrated with 50 mM Tris, 500 mM NaCl, pH7.4. After washing with equilibration buffer, IDH1wt-his/IDH1R132C-flag heterodimer is eluted by equilibration buffer containing flag peptide (0.2 mg/ml). Aliquots of IDH1wt-his/IDH1R132C-flag are flash frozen in liquid N2 and stored at −80° C. Same conditions are used for the purification of IDH1wt-his/IDH1R132H-flag.

[3] = biological target: IDH1-R132H homodimer enzyme (Homo sapiens (Human), UniProt O75874, R132H); test: In vitro assay IDH1-R132H homodimer, NADPH depletion assay with NADPH/NADP preincubation; format: biochemical; settings: 5 μM NADPH and 37.5 μM NADP
In short: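 Conversion of alpha-ketoglutarate to 2-hydroxyglutarate tracked by NADPH depletion. Reaction started with 5 mM alpha-ketoglutarate plus NADPH substrate mix (50 μl total), 60 min at room temperature. Leftover NADPH quantified via diaphorase/resazurin fluorescence.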

IDH2 R140Q = IDH2 R140Q (Homo sapiens (Human), UniProt P48735, R140Q); test: In vitro assay for IDH2m R140Q inhibitors, cofactor depletion assay; format: biochemical; settings: IDH2 R140Q enzyme
In short: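 Remaining cofactor measured fluorimetrically: diaphorase/resazurin Stop Mix […], halting the reaction. Before that, mutant enzyme and compound sat 1 h at RT, then substrate mix (4 μM NADPH, 1.6 mM α-KG) was added for 16 h at RT.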

[4] = test system: U87MG pLVX-IDH2 R140Q-neo cells; test: U87MG pLVX-IDH2 R140Q-neo cell based assay, 2-HG by LC-MS; settings: Homo sapiens, U-87 MG
[5] = test system: Neurosphere cells (TS603); test: Cellular assay for IDH1m R132H inhibitors, 2-HG by LC-MS in neurosphere cells (TS603); format: cell-based; settings: 2-HG in media at 48 hours
In short: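 TS603 neurosphere cells in NeuroCult medium were dosed with compound (0.25% DMSO final) at 37 C, 5% CO2. After 48 hours, medium 2-HG was measured by LC-MS. At 72 hours, viability was read by CellTiter-Glo luminescence.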

HT1080 cells = test: Cellular assay for IDH1m R132C inhibitors, 2-HG by LC-MS in HT1080 cells; format: cell-based; settings: Homo sapiens, HT-1080
In short: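 HT1080 cells at 5000 cells/well were treated with compound (0.2% DMSO final). After 48 h, 2-HG in the medium was measured by LC-MS. Viability was read by CellTiter-Glo luminescence at 72 h.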

[6] = IDH1 wt/R132H heterodimer, NADPH/NADP, not saturated, read-out: IDH1 wt/R132H NADPH/NADP IC50 not saturated

Sequence of IDH2 R140Q (P48735 40-452 R140Q): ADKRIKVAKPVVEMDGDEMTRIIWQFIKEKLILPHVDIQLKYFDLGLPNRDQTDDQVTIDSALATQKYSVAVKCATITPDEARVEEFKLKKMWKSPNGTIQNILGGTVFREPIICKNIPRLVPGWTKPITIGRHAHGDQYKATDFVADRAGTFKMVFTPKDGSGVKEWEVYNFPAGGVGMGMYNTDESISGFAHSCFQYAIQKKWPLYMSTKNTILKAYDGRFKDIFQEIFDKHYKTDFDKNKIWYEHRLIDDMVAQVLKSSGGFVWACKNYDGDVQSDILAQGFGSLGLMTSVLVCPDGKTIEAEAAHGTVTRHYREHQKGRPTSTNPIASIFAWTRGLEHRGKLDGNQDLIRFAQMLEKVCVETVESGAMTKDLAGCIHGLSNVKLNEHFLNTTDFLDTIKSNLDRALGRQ
Sequence of IDH1 wt/IDH1 R132C heterodimer (O75874 whole entry R132C): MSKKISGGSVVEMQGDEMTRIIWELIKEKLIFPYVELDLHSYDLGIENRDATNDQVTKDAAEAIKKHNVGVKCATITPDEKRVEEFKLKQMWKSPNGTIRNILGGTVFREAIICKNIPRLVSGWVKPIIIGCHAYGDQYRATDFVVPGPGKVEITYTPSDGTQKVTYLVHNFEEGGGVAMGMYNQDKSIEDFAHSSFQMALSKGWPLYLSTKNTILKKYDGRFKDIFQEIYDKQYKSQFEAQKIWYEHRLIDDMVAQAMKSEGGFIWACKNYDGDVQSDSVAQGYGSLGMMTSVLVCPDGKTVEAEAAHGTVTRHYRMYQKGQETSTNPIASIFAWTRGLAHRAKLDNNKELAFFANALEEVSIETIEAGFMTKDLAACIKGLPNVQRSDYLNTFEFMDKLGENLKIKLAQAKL
Sequence of IDH1 wt/IDH1 R132C heterodimer (O75874 whole entry, stated change not applied): as the sequence (O75874 whole entry R132C) above, with C132R counted along it
Sequence of IDH1 wt/IDH1 R132H heterodimer (O75874 whole entry R132H): as the sequence (O75874 whole entry R132C) above, with C132H counted along it
Sequence of IDH1 wt/IDH1 R132H heterodimer (O75874 whole entry, stated change not applied): as the sequence (O75874 whole entry R132C) above, with C132R counted along it
Sequence of IDH1-R132H homodimer enzyme (O75874 whole entry R132H): as the sequence (O75874 whole entry R132C) above, with C132H counted along it

Row | IC50 [1, 6] | IC50 [2] | IC50 [3] | IC50 (IDH2 R140Q) | IC50 [4] | IC50 [5] | IC50 ([1]; IDH1 wt/IDH1 R132H heterodimer, 300 μM NADP (saturated), read-out: IDH1 wt/R132H NADPH/NADP IC50 saturated) | IC50 (HT1080 cells) | SMILES
1 | 100 to 1000 nM | 100 to 1000 nM | > 1000 nM |  |  |  |  |  | FC1(F)CCC(Nc2nc(NC3CCC(F)(F)CC3)nc(-c3c[nH]nc3C(F)(F)F)n2)CC1 [Compound 297]
2 | 100 to 1000 nM | ≥ 1000 nM | > 1000 nM |  |  |  |  |  | FC1(F)CCC(Nc2nc(NC3CCC(F)(F)CC3)nc(-c3cccc(OC(F)(F)F)n3)n2)CC1 [Compound 296]
3 | 50 to 100 nM | < 50 nM |  |  |  |  |  |  | CS(=O)(=O)N1CCC(Nc2nc(NC3CCC(F)(F)C3)nc(-c3cccc(C(F)(F)F)n3)n2)C1 (stereo not drawn) [Compound 56]
4 | > 1000 nM | ≥ 1000 nM |  |  |  |  |  |  | FC1(F)CCC(Nc2nc(NC3CCNC3)nc(-c3cccc(C(F)(F)F)n3)n2)C1 (stereo not drawn) [Compound 91]
5 | 50 to 100 nM | 50 to 100 nM | 100 to 1000 nM |  |  |  |  |  | N#Cc1ccc2c(c1)CC(Nc1nc(NC3CCC(F)(F)C3)nc(-c3cccc(C(F)(F)F)n3)n1)C2 (stereo not drawn) [Compound 242]
6 | > 1000 nM | ≥ 1000 nM | > 1000 nM |  |  |  |  |  | COc1ccc(F)c(-c2nc(NC3CCC(F)(F)CC3)nc(NC3CCC(F)(F)CC3)n2)n1 [Compound 321]
7 | 100 to 1000 nM | 50 to 100 nM |  |  |  |  |  |  | CC(=O)N1CCC(Nc2nc(NC3CCC(F)(F)C3)nc(-c3cccc(C(F)(F)F)n3)n2)C1 (stereo not drawn) [Compound 55]
8 | 100 to 1000 nM | 50 to 100 nM |  |  |  |  |  |  | CC(C)(C)OC(=O)N1CCC(Nc2nc(NC3CCC(F)(F)C3)nc(-c3cccc(C(F)(F)F)n3)n2)C1 (stereo not drawn) [Compound 53]
9 | < 50 nM | < 50 nM |  | < 50 nM | < 50 nM | < 50 nM |  |  | Fc1cc(F)cc(Nc2nc(NC3CCC(F)(F)CC3)nc(-c3cccc(C(F)(F)F)n3)n2)c1 [Compound 125]
10 | > 1000 nM | ≥ 1000 nM | > 1000 nM |  |  |  |  |  | Cc1cc(-c2nc(NC3CC(F)(F)C3)nc(NC3CC(F)(F)C3)n2)no1 [Compound 311]
11 | 100 to 1000 nM | 100 to 1000 nM | > 1000 nM | 100 to 1000 nM | 100 to 1000 nM |  |  |  | FC1(F)CCC(Nc2nc(NC3CCC(F)(F)CC3)nc(-n3cc(Cl)cn3)n2)CC1 [Compound 302]
12 | 100 to 1000 nM | ≥ 1000 nM | > 1000 nM |  |  |  |  |  | Cc1nc(-c2nc(NC3CC(F)(F)C3)nc(NC3CC(F)(F)C3)n2)co1 [Compound 301]
13 | > 1000 nM | ≥ 1000 nM |  |  |  |  |  |  | C[C@@H](Nc1nc(N[C@H](C)C2CC2)nc(-c2cccnc2)n1)C1CC1 [Compound 92, N^2,N^4-bis((R)-1-cyclopropylethyl)-6-(pyridin-3-yl)-1,3,5-triazine-2,4-diamine]
14 | 50 to 100 nM | < 50 nM |  |  |  |  |  |  | FC1(F)CCC(Nc2nc(NC3CCOC3)nc(-c3cccc(C(F)(F)F)n3)n2)C1 (stereo not drawn) [Compound 52]
15 | < 50 nM | < 50 nM |  |  |  |  |  |  | C[C@@H](Nc1nc(NC2CC3(C2)CC(F)(F)C3)nc(-c2cccc(C(F)(F)F)n2)n1)C1CC1 [Compound 58]
16 | 100 to 1000 nM | 100 to 1000 nM | > 1000 nM | 100 to 1000 nM | 100 to 1000 nM |  |  |  | C[C@@H](Nc1nc(N[C@H](C)C2CC2)nc(-n2cc(I)cn2)n1)C1CC1 [Compound 279]
17 | 100 to 1000 nM | 50 to 100 nM |  |  |  |  |  |  | CC(C)(C)OC(=O)N1CCC(Nc2nc(NC3CCC(F)(F)C3)nc(-c3cccc(C(F)(F)F)n3)n2)C1 (stereo not drawn) [Compound 90]
18 | < 50 nM |  | < 50 nM | < 50 nM | < 50 nM | < 50 nM | < 50 nM | 100 to 1000 nM | FC1(F)CC[C@@H](Nc2nc(Nc3ccnc(C(F)(F)F)c3)nc(-c3cncc(C(F)(F)F)n3)n2)C1 [Compound 116]
19 | 100 to 1000 nM | 100 to 1000 nM | > 1000 nM | 100 to 1000 nM | 100 to 1000 nM |  |  |  | FC1(F)CCC(Nc2nc(NC3CCC(F)(F)CC3)nc(-c3ccnc(C(F)(F)F)n3)n2)CC1 [Compound 270]
20 | < 50 nM |  | < 50 nM | < 50 nM | < 50 nM | < 50 nM |  | 100 to 1000 nM | N#Cc1cc(F)cc(Nc2nc(NC3CCC(F)(F)C3)nc(-c3nc(C(F)(F)F)cs3)n2)c1 (stereo not drawn) [Compound 132]
21 | 50 to 100 nM |  | 100 to 1000 nM | < 50 nM | 100 to 1000 nM | < 50 nM |  | 100 to 1000 nM | FC1(F)CC(Nc2nc(NC3CC(F)(F)C3)nc(-c3ccnc(C(F)(F)F)n3)n2)C1 [Compound 251]
22 | < 50 nM |  | 100 to 1000 nM | < 50 nM | < 50 nM | < 50 nM |  | 50 to 100 nM | FC(F)c1csc(-c2nc(NC3CCC(F)(F)CC3)nc(NC3CCC(F)(F)CC3)n2)n1 [Compound 205]
23 | < 50 nM |  | 50 to 100 nM | < 50 nM | < 50 nM | < 50 nM |  | 100 to 1000 nM | N#CC1(c2cc(Nc3nc(NCC(F)(F)F)nc(-c4cccc(Cl)n4)n3)ccn2)CC1 [Compound 215]
24 | < 50 nM |  | 100 to 1000 nM | < 50 nM | < 50 nM | < 50 nM |  | 100 to 1000 nM | FC1(F)CCC(Nc2nc(Nc3ccnc(-c4ccccc4)c3)nc(-c3cccc(C(F)(F)F)n3)n2)C1 (stereo not drawn) [Compound 202]
25 | 100 to 1000 nM | 100 to 1000 nM | > 1000 nM |  |  |  |  |  | Fc1ccc(F)c(-c2nc(NC3CCC(F)(F)CC3)nc(NC3CCC(F)(F)CC3)n2)n1 [Compound 276]
26 | < 50 nM |  | < 50 nM | < 50 nM | < 50 nM | < 50 nM |  | 50 to 100 nM | FC1(F)CCC(Nc2nc(NC3CC(F)(F)C3)nc(-c3cccc(C(F)(F)F)n3)n2)CC1 [Compound 143]

Row | SMILES | IC50 [1, 6] | IC50 [2] | IC50 [3] | IC50 (IDH2 R140Q) | IC50 [4] | IC50 [5] | IC50 ([1]; IDH1 wt/IDH1 R132H heterodimer, 300 μM NADP (saturated), read-out: IDH1 wt/R132H NADPH/NADP IC50 saturated) | IC50 (HT1080 cells)
27 | Nc1ccc(F)c(-c2nc(NC3CCC(F)(F)CC3)nc(NC3CCC(F)(F)CC3)n2)n1 [Compound 249] | 50 to 100 nM |  | > 1000 nM | < 50 nM | 100 to 1000 nM | 50 to 100 nM |  | 100 to 1000 nM
28 | Fc1cc(F)cc(Nc2nc(NC3CCC(F)(F)CC3)nc(-c3nc(F)ccc3F)n2)c1 [Compound 260] | 100 to 1000 nM | 50 to 100 nM |  | < 50 nM | < 50 nM |  |  | > 1000 nM
